Converted amounts (≈) assume the structure as drawn.
How the values were obtained:
Format in all cases: physicochemical
Hygroscopicity test = conditions: 25±1° C., relative humidity 80%±2% (DVS, 80% RH)
Experimental: Detection instrument: XPE105DR
(1) A dry stoppered glass weighing bottle was taken, placed in a suitable constant-temperature desiccator at 25° C. 1° C. (with a saturated solution of ammonium chloride or ammonium sulfate in the lower part) or an artificial climate box (with the set temperature of 25° C.±1° C. and the relative humidity of 80%±2%) on the day before the test, and precisely weighed and recorded as the weight (m1).
(2) An appropriate amount of the test sample was taken and spread in the above-mentioned weighing bottle. The thickness of the test sample was generally about 1 mm, and the bottle was precisely weighed and recorded as the weight (m2).
(3) The stopper was removed to open the weighing bottle, and the opened weighing bottle and the stopper were placed under the above-mentioned constant temperature and humidity conditions for 24 hours.
(4) The opened weighing bottle was stoppered, precisely weighed, and recorded as the weight (m3).
Percentage increase in mass=(m3−m2)/(m2−m1)×100%
(5) The description of hygroscopicity characteristics and the definition for the weight gain due to hygroscopicity:
Deliquescence: Sufficient water was absorbed to form a liquid.
Very hygroscopic: the weight gain due to hygroscopicity was not less than 15%.
Hygroscopic: the weight gain due to hygroscopicity was less than 15% but not less than 2%.
Slightly hygroscopic: the weight gain due to hygroscopicity was less than 2% but not less than 0.2%.
Not or nearly not hygroscopic: the weight gain due to hygroscopicity was less than 0.2%.
Appropriate amounts of the salt samples obtained from Examples 1 and 3-17 were subjected to the hygroscopicity test at a temperature of 25±1° C. under a relative humidity of 80%±2%, and the results were as follows: […]

[1] = Solubility test (UV spectrophotometer, saturated solutions shaken 24 hours); conditions: 25° C.; for Solubility, Water medium pH = 1.2: pH=1.2 hydrochloric acid solution; for Solubility, Water medium pH = 4.5: pH=4.5 phosphate buffer solution; for Solubility, Water medium pH = 6.8: pH=6.8 phosphate buffer solution; for Solubility, Water medium: water (purified water)
Experimental: Detection instrument: Ultraviolet spectrophotometer/Evolution 300
The following solutions with pH=1.2, pH=4.5, and pH=6.8 and water were used as the solvent, and the solvent preparation process was as follows:
(1) pH=1.2 hydrochloric acid solution: To 7.65 mL of hydrochloric acid was added 1000 mL of water, and the mixture was shaken uniformly to obtain the target solution.
(2) pH=4.5 phosphate buffer solution: 6.8 g of potassium dihydrogen phosphate was taken and diluted with water to 1000 mL, and the mixture was shaken uniformly to obtain the target solution.
(2) pH=6.8 phosphate buffer solution: 6.8 g of potassium dihydrogen phosphate and 0.896 g of sodium hydroxide were taken and diluted with water to 1000 mL, and the mixture was shaken uniformly to obtain the target solution.
(4) Water: purified water
Test tubes with stopper were taken, and 10 mL of dissolution media at various pH values were precisely added to the test tubes respectively, and excessive stock drugs were added until supersaturated solutions were formed. The adding amounts were recorded. The solutions were shaken uniformly, sealed with stoppers, and shaken for 24 hours in a shaker. 2 mL of solutions were taken out at different time points respectively, and centrifuged. The resulting supernatants were taken, filtered, and the subsequent filtrates were taken for later use.
The above-mentioned saturated solutions in different solvents were taken, and solvents were added to dilute the solutions to certain volumes. The absorbances were measured at a wavelength of 287 nm.
Preparation of a solution of the reference substance: an appropriate amount of the compound represented by Formula 1 was taken as the reference substance, and precisely weighed. A solvent was added to dissolve and dilute the reference compound to produce a solution containing about 10 μg of the compound represented by Formula 1 per 1 mL. The absorbance was measured at a wavelength of 287 nm to calculate the solubility.
The salts obtained in Examples 1 and 3-17 and the compound represented by Formula 1 were subjected to the solubility test in media and the test results were shown in the following table: […]

DSC and TGA tests = conditions: onset temperature
Experimental: 6. Differential Scanning Calorimetry-Thermogravimetric Analysis (DSC-TGA)
Detection instrument: NETZSCH STA 449F3
Temperature range: 20° C.-350° C.;
Heating rate: 10.0 (K/min);
7. Differential Scanning Calorimetry (DSC)
Detection instrument: NETZSCH DSC 214 Polyma
Temperature range: 20° C.-250° C.;
Heating rate: 5.0 (K/min);
8. Thermogravimetric Analysis (TGA)
Detection instrument: METTLER and SDT Q600
The salts obtained in Examples 1 and 3-17 and the compound represented by Formula 1 were subjected to the DSC and TGA tests in media, and the test results were shown in the following table: […]

[2] = Accelerated stability test
Experimental: Appropriate amounts of the salt samples obtained from Examples 1 and 3-17 were placed at a temperature of 25±2° C. under 0%±5% RH in an open environment for 10 days and at a temperature of 40±2° C. under 75%±5% RH in an open environment for 10 days respectively to perform the accelerated tests, and the results were as follows: […]

[3] = Placed at 25 ± 2° C. under 0% ± 5% RH in an open environment for 10 days
[4] = Placed at 40 ± 2° C. under 75% ± 5% RH in an open environment for 10 days

Weight gain due to hygroscopicity (Hygroscopicity test) | Solubility, Water medium pH = 1.2 [1] | Solubility, Water medium pH = 4.5 [1] | Solubility, Water medium pH = 6.8 [1] | Solubility, Water medium [1] | TGA: starting to lose the acid (DSC and TGA tests) | TGA: starting to lose the water of crystallization (DSC and TGA tests) | Appearance [2, 3] | Appearance [2, 4] | SMILES | Hygroscopicity (Hygroscopicity test)
1.43% | 36.41 mg/mL | 14.36 mg/mL | 10.46 mg/mL | 9.74 mg/mL (≈ 22 mM) | ~180 °C (see FIG. 28) | crystallization at about 40° C.; | – | – | CC(C)n1c(Nc2cccnc2)nc2cnc(Nc3ccc(N4CCN(C)CC4)cc3)nc21 [Example 8] | Slightly hygroscopic (the weight gain due to hygroscopicity was less than 2% but not less than 0.2%.)
1.43% | 44.51 mg/mL | 15.17 mg/mL | 11.48 mg/mL | 10.50 mg/mL (≈ 23.7 mM) | ~170 °C (see FIG. 29) | crystallization at about 40° C.; | – | – | CC(C)n1c(Nc2cccnc2)nc2cnc(Nc3ccc(N4CCN(C)CC4)cc3)nc21 [Example 9] | Slightly hygroscopic (the weight gain due to hygroscopicity was less than 2% but not less than 0.2%.)
0.54% | 66.52 mg/mL | 13.98 mg/mL | 6.36 mg/mL | 2.49 mg/mL (≈ 5.61 mM) | ~170 °C (see FIG. 30) | crystallization at about 40° C.; | Yellow solid | Yellow solid | CC(C)n1c(Nc2cccnc2)nc2cnc(Nc3ccc(N4CCN(C)CC4)cc3)nc21 [Example 10] | Slightly hygroscopic (the weight gain due to hygroscopicity was less than 2% but not less than 0.2%.)
1.34% | 33.29 mg/mL | 21.64 mg/mL | 31.39 mg/mL | 16.51 mg/mL (≈ 37.2 mM) | ~210 °C (see FIG. 41) | crystallization at about 40° C.; | – | – | CC(C)n1c(Nc2cccnc2)nc2cnc(Nc3ccc(N4CCN(C)CC4)cc3)nc21 [Example 17] | Slightly hygroscopic (the weight gain due to hygroscopicity was less than 2% but not less than 0.2%.)

Second part, the molecule before the results:

SMILES | Weight gain due to hygroscopicity (Hygroscopicity test) | Solubility, Water medium pH = 1.2 [1] | Solubility, Water medium pH = 4.5 [1] | Solubility, Water medium pH = 6.8 [1] | Solubility, Water medium [1] | TGA: starting to lose the acid (DSC and TGA tests) | TGA: starting to lose the water of crystallization (DSC and TGA tests) | Appearance [2, 3] | Appearance [2, 4] | Hygroscopicity (Hygroscopicity test)
CC(C)n1c(Nc2cccnc2)nc2cnc(Nc3ccc(N4CCN(C)CC4)cc3)nc21 [Example 3] | 5.86% | 360.00 mg/mL | 207.53 mg/mL | 153.30 mg/mL | 212.73 mg/mL (≈ 480 mM) | ~120 °C (see FIG. 21) | crystallization at about 40° C.; | – | – | Hygroscopic (the weight gain due to hygroscopicity was less than 15% but not less than 2%.)
CC(C)n1c(Nc2cccnc2)nc2cnc(Nc3ccc(N4CCN(C)CC4)cc3)nc21 [Example 4] | 6.94% | >1000 mg/mL | >1000 mg/mL | >1000 mg/mL | >1000 mg/mL | ~220 °C (see FIG. 23) | crystallization at about 40° C.; | Liquid | Liquid | Hygroscopic (the weight gain due to hygroscopicity was less than 15% but not less than 2%.)
CC(C)n1c(Nc2cccnc2)nc2cnc(Nc3ccc(N4CCN(C)CC4)cc3)nc21 [Example 5] | 19.62% | >1000 mg/mL | >1000 mg/mL | >1000 mg/mL | >1000 mg/mL | ~190 °C (see FIG. 25) | crystallization at about 40° C.; | Liquid | Liquid | Very hygroscopic (the weight gain due to hygroscopicity was not less than 15%.)
CC(C)n1c(Nc2cccnc2)nc2cnc(Nc3ccc(N4CCN(C)CC4)cc3)nc21 [Example 6] | 1.02% | 54.70 mg/mL | 14.59 mg/mL | 12.05 mg/mL | 9.68 mg/mL (≈ 21.8 mM) | ~170 °C (see FIG. 26) | crystallization at about 40° C.; | Yellow solid | Yellow solid | Slightly hygroscopic (the weight gain due to hygroscopicity was less than 2% but not less than 0.2%.)
CC(C)n1c(Nc2cccnc2)nc2cnc(Nc3ccc(N4CCN(C)CC4)cc3)nc21 [Example 7] | 1.19% | 43.07 mg/mL | 6.51 mg/mL | 12.24 mg/mL | 6.91 mg/mL (≈ 15.6 mM) | ~180 °C (see FIG. 27) | crystallization at about 40° C.; | Yellow solid | Yellow solid | Slightly hygroscopic (the weight gain due to hygroscopicity was less than 2% but not less than 0.2%.)
CC(C)n1c(Nc2cccnc2)nc2cnc(Nc3ccc(N4CCN(C)CC4)cc3)nc21 [Example 12] | 0.11% | 42.39 mg/mL | 2.70 mg/mL | 0.14 mg/mL | 3.09 mg/mL (≈ 6.97 mM) | ~140 °C (see FIG. 33) | crystallization at about 40° C.; | – | – | –
CC(C)n1c(Nc2cccnc2)nc2cnc(Nc3ccc(N4CCN(C)CC4)cc3)nc21 [Example 13] | 0.05% | 59.71 mg/mL | 8.42 mg/mL | 1.12 mg/mL | 5.06 mg/mL (≈ 11.4 mM) | ~140 °C (see FIG. 35) | crystallization at about 40° C.; | – | – | –
CC(C)n1c(Nc2cccnc2)nc2cnc(Nc3ccc(N4CCN(C)CC4)cc3)nc21 [Example 16] | 7.67% | 129.50 mg/mL | 90.03 mg/mL | 90.09 mg/mL | 76.59 mg/mL (≈ 173 mM) | ~240 °C (See FIG. 40) | crystallization at about 40° C.; | – | – | Hygroscopic (the weight gain due to hygroscopicity was less than 15% but not less than 2%.)

— patent publication US20230144619A1, “SALT OF ARYLAMINOPURINE DERIVATIVE, PREPARATION METHOD THEREFOR AND USE THEREOF” (CSPC Zhongqi Pharmaceutical Technology (Shijiazhuang) Co., …, priority 2020, published 2023)
